The EC50 is the concentration at which the effect is half-maximal. A high value points to weaker potency. One may read the IC50 as the point on the concentration scale where inhibition reaches its midpoint. Low values mean greater potency in that assay, high ones weaker potency in that assay. The term inhibition denotes the change of the read-out against control, counted positive when it falls.

The source made the active and inactive calls. The rule behind the calls is not given here.

Test [1] addresses T1, Progesterone receptor (Homo sapiens, UniProt P06401).
T1 sequence (P06401 whole entry): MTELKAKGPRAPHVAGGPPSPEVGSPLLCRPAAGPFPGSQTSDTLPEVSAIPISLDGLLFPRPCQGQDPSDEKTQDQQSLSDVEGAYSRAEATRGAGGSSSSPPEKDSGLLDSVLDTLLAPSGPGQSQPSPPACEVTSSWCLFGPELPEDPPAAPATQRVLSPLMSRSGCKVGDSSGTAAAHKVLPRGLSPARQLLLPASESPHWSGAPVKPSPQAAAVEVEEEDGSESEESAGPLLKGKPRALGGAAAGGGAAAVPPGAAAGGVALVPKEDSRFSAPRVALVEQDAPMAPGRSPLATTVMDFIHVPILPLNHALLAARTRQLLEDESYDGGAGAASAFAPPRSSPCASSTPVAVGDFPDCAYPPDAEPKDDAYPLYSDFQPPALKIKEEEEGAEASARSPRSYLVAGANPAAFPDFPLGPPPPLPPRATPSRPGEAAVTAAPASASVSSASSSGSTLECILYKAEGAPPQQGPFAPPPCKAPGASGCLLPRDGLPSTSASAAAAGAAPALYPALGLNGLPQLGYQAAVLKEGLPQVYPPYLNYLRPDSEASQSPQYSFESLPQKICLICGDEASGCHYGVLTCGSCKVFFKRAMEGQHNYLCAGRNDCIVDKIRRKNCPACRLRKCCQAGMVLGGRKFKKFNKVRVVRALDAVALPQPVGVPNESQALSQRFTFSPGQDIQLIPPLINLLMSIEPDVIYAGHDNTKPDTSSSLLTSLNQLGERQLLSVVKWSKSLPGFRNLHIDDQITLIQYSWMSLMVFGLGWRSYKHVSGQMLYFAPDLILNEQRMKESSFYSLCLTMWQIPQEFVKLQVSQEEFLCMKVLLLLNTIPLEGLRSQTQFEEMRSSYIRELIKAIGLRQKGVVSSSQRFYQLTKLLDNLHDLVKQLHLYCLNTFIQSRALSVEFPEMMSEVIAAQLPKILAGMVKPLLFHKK
Kind of test: Agonistic activity measures the ability to induce alkaline phosphatase in T47D human breast cancer cell line. Type of test: functional, cell-based.

In test [2] the target is T1, Progesterone receptor. Kind of test: Ability to block progesterone induced alkaline phosphatase activity in T47D human breast cancer cell line. Type of test: functional, cell-based.
Test [3] is described as follows: Displacement of [3H]progesterone at progesterone receptor of T47D cells. Type of test: cell-based, Homo sapiens. Background: Displacement assays read how much labelled ligand stays bound in the presence of the test substance.
The target in test [4] is T2, Progesterone receptor (Homo sapiens) (UniProt P06401).
T2 sequence (whole entry): T1 sequence (P06401 whole entry)
Kind of test: Efficacy in vitro relative to P4 in progesterone receptor induced alkaline phosphatase T47D cell assay. The test is classed as functional, cell-based.

Test [5] has as its target T3, Progesterone receptor (Rattus norvegicus) (UniProt Q63449).
T3 sequence (whole entry): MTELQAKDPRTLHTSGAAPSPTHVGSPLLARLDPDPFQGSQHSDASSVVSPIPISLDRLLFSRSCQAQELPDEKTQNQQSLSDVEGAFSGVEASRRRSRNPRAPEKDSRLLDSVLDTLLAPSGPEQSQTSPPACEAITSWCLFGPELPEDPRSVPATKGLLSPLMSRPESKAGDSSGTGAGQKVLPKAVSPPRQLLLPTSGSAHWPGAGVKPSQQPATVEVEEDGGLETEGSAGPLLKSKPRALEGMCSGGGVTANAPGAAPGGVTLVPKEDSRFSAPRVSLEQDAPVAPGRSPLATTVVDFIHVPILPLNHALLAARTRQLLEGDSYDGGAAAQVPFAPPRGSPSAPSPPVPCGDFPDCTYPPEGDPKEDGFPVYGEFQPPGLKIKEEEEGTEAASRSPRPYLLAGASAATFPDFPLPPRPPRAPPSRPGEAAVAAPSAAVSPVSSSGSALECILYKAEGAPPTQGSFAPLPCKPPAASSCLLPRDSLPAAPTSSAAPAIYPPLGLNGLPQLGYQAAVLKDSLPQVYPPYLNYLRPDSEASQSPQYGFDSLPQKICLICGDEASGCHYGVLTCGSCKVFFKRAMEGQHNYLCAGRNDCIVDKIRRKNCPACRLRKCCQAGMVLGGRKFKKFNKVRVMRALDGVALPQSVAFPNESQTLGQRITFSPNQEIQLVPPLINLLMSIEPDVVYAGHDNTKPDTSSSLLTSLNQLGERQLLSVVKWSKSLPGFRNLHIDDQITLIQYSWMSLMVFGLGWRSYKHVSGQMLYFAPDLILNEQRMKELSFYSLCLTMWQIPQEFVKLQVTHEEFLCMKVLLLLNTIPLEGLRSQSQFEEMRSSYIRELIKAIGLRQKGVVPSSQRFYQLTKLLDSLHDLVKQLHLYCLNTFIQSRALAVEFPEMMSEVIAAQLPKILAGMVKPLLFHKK
As to the kind of experiment: Percentage inhibition of progesterone-induced stimulation when administered orally at 10 mg/kg in rat decidualization assay. Type of test: functional, organism-based. Also on record: dose 10 mg/kg.

Test [6] addresses T1, Progesterone receptor. Kind of test: Agonistic activity as progesterone receptor induced alkaline phosphatase activity in T47D human breast cancer cells. Type of test: functional, cell-based.
Test [7] addresses T4, Androgen receptor (Homo sapiens) (UniProt P10275).
T4 sequence (whole entry): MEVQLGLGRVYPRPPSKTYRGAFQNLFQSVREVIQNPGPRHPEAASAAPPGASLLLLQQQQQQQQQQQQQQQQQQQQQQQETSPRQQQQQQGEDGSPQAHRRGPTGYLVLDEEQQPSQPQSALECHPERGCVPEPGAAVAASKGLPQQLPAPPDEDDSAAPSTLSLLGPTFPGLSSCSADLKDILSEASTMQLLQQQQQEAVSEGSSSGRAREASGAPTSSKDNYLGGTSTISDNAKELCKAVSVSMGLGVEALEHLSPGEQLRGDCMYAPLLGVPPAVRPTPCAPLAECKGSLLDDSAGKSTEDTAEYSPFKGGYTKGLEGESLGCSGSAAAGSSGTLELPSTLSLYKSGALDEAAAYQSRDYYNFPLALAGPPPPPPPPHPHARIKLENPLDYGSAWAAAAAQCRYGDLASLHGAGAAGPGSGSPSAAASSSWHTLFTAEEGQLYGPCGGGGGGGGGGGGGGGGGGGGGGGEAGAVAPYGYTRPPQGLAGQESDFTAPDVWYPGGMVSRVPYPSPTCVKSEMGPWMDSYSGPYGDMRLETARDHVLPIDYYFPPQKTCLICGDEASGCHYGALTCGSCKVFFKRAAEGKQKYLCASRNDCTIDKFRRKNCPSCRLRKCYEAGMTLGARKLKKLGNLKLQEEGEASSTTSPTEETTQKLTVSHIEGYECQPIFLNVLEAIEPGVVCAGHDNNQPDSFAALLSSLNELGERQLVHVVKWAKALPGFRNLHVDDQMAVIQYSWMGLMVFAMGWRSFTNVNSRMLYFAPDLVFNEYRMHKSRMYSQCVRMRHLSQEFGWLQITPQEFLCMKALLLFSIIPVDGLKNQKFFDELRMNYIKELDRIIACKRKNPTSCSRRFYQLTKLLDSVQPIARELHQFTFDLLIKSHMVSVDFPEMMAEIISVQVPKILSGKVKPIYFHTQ
Kind of test: Agonistic activity for androgen receptor up to 10 uM; Not active. Type of test: functional.

Test [8] has as its target T5, Androgen receptor (Homo sapiens, UniProt P10275).
T5 sequence (P10275 whole entry): T4 sequence (whole entry)
As to the kind of experiment: Antagonist activity for androgen receptor. The test is classed as functional.

Test [9] can be described thus: Agonistic activity for glucocorticoid receptor up to 10 uM; Not active. Type of test: functional.
The nature of test [10]: Antagonist activity for glucocorticoid receptor. Type of test: functional.
Test [11] has as its target T3, Progesterone receptor (Rattus norvegicus). As to the kind of experiment: Percentage inhibition of progesterone-induced stimulation when administered orally at 3 mg/kg in rat decidualization assay. More on the design: dose 3 mg/kg. Type of test: functional, organism-based.

In the case of `CC1(C)OC(=O)Nc2ccc(-c3ccc(C(=O)C(F)(F)F)[nH]3)cc21`, the EC50 in test [1] is about 1 µM. The compound also came in with an IC50 in test [2] of over 3 µM.
For `Cn1c(-c2ccc3c(c2)C(C)(C)OC(=O)N3)cnc1C#N`, in that order: 0.13 µM and over 3 µM.
In turn, `Cn1c(C#N)ccc1-c1ccc2c(c1)C1(CCCCC1)C(=O)N2` showed an EC50 in test [1] of 0.0028 µM. Also, the values for the IC50 in test [3] and in [2] were 0.0034 µM and over 3 µM, respectively.
With `CC1(C)OC(=O)Nc2ccc(-c3ccc([N+](=O)[O-])[nH]3)cc21`, the EC50 in test [1] is about 1 µM. This compound also showed an IC50 in test [2] of 0.18 µM.
On to `CC#C[C@]1(O)CC[C@H]2[C@@H]3CCC4=CC(=O)CCC4=C3[C@@H](c3ccc(N(C)C)cc3)C[C@@]21C` [MIFEPRISTONE], for which the IC50 in test [3] turned out to be 0.0007 µM.
In the case of `CC1(C)OC(=O)Nc2ccc(-c3ccc(C=O)[nH]3)cc21`, in test [1], the EC50 is about 1 µM. In addition, in test [2], the IC50 is over 3 µM.
In the same order, the values of `CC1(C)OC(=O)Nc2ccc(-c3c[nH]c(C#N)c3)cc21` are over 1 µM and about 2 µM.
`CCn1c(C#N)ccc1-c1ccc2c(c1)C(C)(C)OC(=O)N2` registered an Efficacy in test [4] of 80%. The IC50 in test [3] is 0.0094 µM; in [2], about 3 µM. Also, in test [5], the inhibition is 30%. Moreover, in test [6], the EC50 was 0.0018 µM.
`CC1(C)OC(=O)Nc2ccc(-c3ccc(C#N)o3)cc21` displayed an EC50 in test [1] of about 3 µM. Further, half-maximal inhibition in test [2] (IC50) required 0.065 µM.
`CC1(C)OC(=O)Nc2ccc(-c3ccc[nH]3)cc21`: in test [1], the concentration giving a half-maximal response (EC50) is over 3 µM. In [2], the IC50 was about 3 µM.
In [3], `CC(=O)[C@H]1CC[C@H]2[C@@H]3CCC4=CC(=O)CC[C@]4(C)[C@H]3CC[C@]12C` [PROGESTERONE] gave a 50% inhibitory concentration (IC50) of 0.0034 µM. This lies in the single-digit nanomolar range.
`Cn1ccc(C#N)c1-c1ccc2c(c1)C(C)(C)OC(=O)N2` yielded an EC50 in [1] of over 1 µM. For the same compound, the IC50 in test [2] was about 3 µM.
`Cn1c(C#N)ccc1-c1ccc2c(c1)C(C)(C)OC(=O)N2` yielded an Efficacy in test [4] of 80%. Moreover, the IC50 in test [3] is 0.0049 µM; in test [2] it was over 3 µM. In test [5], this compound came in with an inhibition of 50%. The same compound had an EC50 in [6] of 0.0011 µM.
In [1], `CC1(C)OC(=O)Nc2ccc(-c3cccc(C#N)c3)cc21` came in with an EC50 of about 1 µM. For the same compound, the IC50 in test [3] amounted to 0.018 µM; in [2], 0.008 µM.
In the same order, the values of `CC1(C)OC(=O)Nc2ccc(-c3ccc(C#N)[nH]3)cc21` are 0.0021 µM, 0.029 µM and over 3 µM.
In [1], `CC1(C)OC(=O)Nc2ccc(-c3ccc(C#N)s3)cc21` showed an EC50 of about 1 µM. Besides, the IC50 in [2] came out at 0.023 µM.
`N#Cc1ccc(-c2ccc3c(c2)C2(CCCCC2)C(=O)N3)[nH]1` yielded an EC50 in test [1] of 0.06 µM. In test [2], this compound registered an IC50 of over 3 µM.
Regarding `N#Cc1cccc(-c2ccc3c(c2)C2(CCCCC2)C(=O)N3)c1`, the result in [7] and in test [9] was inactive. In addition, the IC50 in [8] and in test [10] was over 1 µM in each case.
Regarding `Cn1cc(-c2ccc3c(c2)C(C)(C)OC(=O)N3)cc1C#N`, in test [1], the EC50 was over 1 µM. Besides, the IC50 in [3] came out at 0.088 µM; in test [2] it was 0.041 µM.
In turn, `CC1(C)OC(=O)Nc2ccc(-c3cnc(C#N)o3)cc21` had an EC50 in [1] of over 1 µM. Moreover, the IC50 in test [2] was about 3 µM.
For the compound `O=C1Nc2ccc(-c3ccc([N+](=O)[O-])[nH]3)cc2C12CCCCC2`, the EC50 in test [1] was over 1 µM. The same compound yielded an inhibition in [11] of 50%. The IC50 in test [2] came out at 0.036 µM.
For the compound `CC1(C)OC(=O)Nc2ccc(-c3[nH]ccc3C#N)cc21`, in test [1], the EC50 was over 1 µM. Further, the IC50 in test [2] was over 3 µM.

For the origin of these results see ChEMBL document CHEMBL1147554, “Novel pyrrole-containing progesterone receptor modulators” (Bioorg Med Chem Lett, 2004).
